Bounds are passed on as bounds.

Among the data in BindingDB's records for PubMed 37235998 (Nanjing University of Chinese Medicine) are IC50 values, retold here.

Assay [1] deals with Isocitrate dehydrogenase [NADP] cytoplasmic (Homo sapiens, UniProt O75874). The assay can be described thus: Inhibition of N-terminal His-tagged human recombinant IDH1 R132H mutant (1 to 414) expressed in Sf9 incubated for 60 mins by size-exclusion chromatography analysis. In general terms: SEC sorts molecules by how far they enter the pores of the column.
Sequence of Isocitrate dehydrogenase [NADP] cytoplasmic (O75874 2-414 R132H limits assumed): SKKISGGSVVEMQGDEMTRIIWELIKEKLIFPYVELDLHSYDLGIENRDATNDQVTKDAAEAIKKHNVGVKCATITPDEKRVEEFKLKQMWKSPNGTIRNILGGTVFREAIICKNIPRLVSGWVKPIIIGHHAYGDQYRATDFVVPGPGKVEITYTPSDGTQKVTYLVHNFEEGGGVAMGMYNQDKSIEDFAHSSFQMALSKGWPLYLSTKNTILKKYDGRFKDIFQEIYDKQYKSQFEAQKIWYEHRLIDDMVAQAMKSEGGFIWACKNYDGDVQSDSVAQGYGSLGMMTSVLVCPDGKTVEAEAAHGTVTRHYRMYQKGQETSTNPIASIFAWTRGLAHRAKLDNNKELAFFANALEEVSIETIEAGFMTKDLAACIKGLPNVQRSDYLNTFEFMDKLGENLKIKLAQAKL
The target of assay [2] is T1, Isocitrate dehydrogenase [NADP], mitochondrial (Homo sapiens, UniProt P48735).
T1 sequence (P48735 whole entry): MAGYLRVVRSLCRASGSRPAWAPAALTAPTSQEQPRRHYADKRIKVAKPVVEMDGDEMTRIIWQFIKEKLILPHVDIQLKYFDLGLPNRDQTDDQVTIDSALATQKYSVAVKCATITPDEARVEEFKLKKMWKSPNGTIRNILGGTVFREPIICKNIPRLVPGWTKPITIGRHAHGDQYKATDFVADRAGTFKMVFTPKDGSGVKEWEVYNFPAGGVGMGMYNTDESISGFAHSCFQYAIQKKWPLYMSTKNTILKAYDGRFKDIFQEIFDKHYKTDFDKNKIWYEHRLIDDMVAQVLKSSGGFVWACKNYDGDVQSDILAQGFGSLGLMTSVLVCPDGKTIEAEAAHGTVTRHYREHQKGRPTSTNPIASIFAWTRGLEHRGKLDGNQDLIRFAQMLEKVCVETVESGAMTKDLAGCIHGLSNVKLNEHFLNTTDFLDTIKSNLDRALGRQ
The assay is described as follows: Inhibition of N-terminal His-tagged human recombinant IDH2 R140Q mutant (41 to 452) expressed in baculovirus system incubated for 60 mins by size-exclusion chromatography analysis.

For orientation: IC50 means the concentration that inhibits the measured activity by half. In the case of `FC1(F)CCC(Nc2nc(NC3Cc4ccccc4C3)nc(-c3cccc(C(F)(F)F)n3)n2)C1` (stereo not drawn) [US10028961, Compound 152], the IC50 in assay [1] and in assay [2] was less than 50 nM in each case.

For the compound `C[C@@H](Nc1nc(Nc2ccnc(C3(C#N)CC3)c2)nc(-c2cccc(C(F)(F)F)n2)n1)C(F)(F)F` [US10028961, Compound 352], the IC50 in assay [2] is less than 50 nM.
